Results taken from ChEMBL document CHEMBL3885861, “Open TG-GATES”.

Species on record: Rattus norvegicus
Assay: Open TG-GATES - Regimen: Single
Type: toxicity, organism-based, Sprague-Dawley
Design: regimen Single, gender Male, age 6 weeks
Details: in vivo, iv, route intravenous injection; for IP / K / LDH / Na / PL / RALB / TBIL / TC / TG / TP / gamma-GTP / A/G / ALP / ALT / AST / BUN / CRE / Ca / Cl / DBIL / GLC: tissue Plasma; for APTT / Bas / Eos / Fbg / Hb / Ht / Lym / MCH / MCHC / MCV / Mono / Neu / PT / Plat / RBC / Ret / WBC: tissue Blood; for KIDNEY_L / KIDNEY_R / KIDNEY_TOTAL: tissue Kidney; for LIVER: tissue Liver
[1] = 2 mg/kg, 6 h, dose level Middle
[2] = 2 mg/kg, 9 h, dose level Middle
[3] = 2 mg/kg, 24 h, dose level Middle

## C[C@@H]1[C@H](O)[C@@H](C)/C=C/C=C/C=C/C=C/C=C/C=C/C=C/[C@H](O[C@@H]2O[C@H](C)[C@@H](O)[C@H](N)[C@@H]2O)C[C@@H]2O[C@](O)(C[C@@H](O)C[C@@H](O)[C@H](O)CC[C@@H](O)C[C@@H](O)CC(=O)O[C@H]1C)C[C@H](O)[C@H]2C(=O)O [AMPHOTERICIN B]
[1]
  IP: 11.3 mg/dL
  K: 5.5 meq/L
  LDH: 531 IU/L
  Na: 142.5 meq/L
  PL: 116.2 mg/dL
  RALB: 2.5 g/dL
  TBIL: 0.0675 mg/dL
  TC: 69 mg/dL
  TG: 41 mg/dL
  TP: 5.5 g/dL
  gamma-GTP: 3.2 IU/L
[2]
  TERMINAL_BW: 209.6 g
  APTT: 16.5 s
  Bas: 0%
  Eos: 0.2%
  Fbg: 288.2 mg/dL
  Hb: 13.5 g/dL
  Ht: 37.5%
  Lym: 59%
  MCH: 21.2 pg
  MCHC: 36%
  MCV: 59 fL
  Mono: 3.5%
  Neu: 35.8%
  PT: 12.8 s
  Plat: 147.9 x10_4/uL
  RBC: 634.8 x10_4/ul
  Ret: 7.8%
  WBC: 117.4 x10_2/uL
  KIDNEY_L: 1 g
  KIDNEY_R: 1 g
  KIDNEY_TOTAL: 2 g
  LIVER: 8.3 g
  A/G: 0.8
  ALP: 1444 IU/L
  ALT: 39.5 IU/L
  AST: 80.8 IU/L
  BUN: 29.8 mg/dL
  CRE: 0.2 mg/dL
  Ca: 10.8 mg/dL
  Cl: 109.2 meq/L
  DBIL: 0.0225 mg/dL
  GLC: 171.5 mg/dL
  IP: 10.7 mg/dL
  K: 3.8 meq/L
  LDH: 64.8 IU/L
  Na: 145 meq/L
  PL: 139.8 mg/dL
  RALB: 2.5 g/dL
  TBIL: 0.0875 mg/dL
  TC: 83.5 mg/dL
  TG: 22.8 mg/dL
  TP: 5.6 g/dL
  gamma-GTP: 1.5 IU/L
[3]
  TERMINAL_BW: 219.6 g
  APTT: 14.8 s
  Bas: 0%
  Eos: 1%
  Fbg: 363 mg/dL
  Hb: 13.6 g/dL
  Ht: 39.2%
  Lym: 74%
  MCH: 20.6 pg
  MCHC: 34.7%
  MCV: 59.2 fL
  Mono: 2.7%
  Neu: 21.7%
  PT: 12.3 s
  Plat: 150.1 x10_4/uL
  RBC: 663 x10_4/ul
  Ret: 6.5%
  WBC: 92.3 x10_2/uL
  KIDNEY_L: 1 g
  KIDNEY_R: 1 g
  KIDNEY_TOTAL: 2 g
  LIVER: 10.1 g
  A/G: 0.8
  ALP: 1322 IU/L
  ALT: 32.3 IU/L
  AST: 65 IU/L
  BUN: 22.7 mg/dL
  CRE: 0.2 mg/dL
  Ca: 11 mg/dL
  Cl: 106.7 meq/L
  DBIL: 0.0133 mg/dL
  GLC: 171.3 mg/dL
  IP: 7.6 mg/dL
  K: 4.3 meq/L
  LDH: 57.3 IU/L
  Na: 144 meq/L
  PL: 148.7 mg/dL
  RALB: 2.6 g/dL
  TBIL: 0.0567 mg/dL
  TC: 91.3 mg/dL
  TG: 64.7 mg/dL
  TP: 5.9 g/dL
  gamma-GTP: 1.3 IU/L
4 mg/kg, 24 h, dose level High
  TERMINAL_BW: 207 g
  APTT: 12.7 s
  Bas: 0%
  Eos: 1%
  Fbg: 536 mg/dL
  Hb: 14.3 g/dL
  Ht: 37.3%
  Lym: 55%
  MCH: 21.1 pg
  MCHC: 38.3%
  MCV: 55.1 fL
  Mono: 2%
  Neu: 42%
  PT: 11.1 s
  Plat: 105.2 x10_4/uL
  RBC: 676 x10_4/ul
  Ret: 6.3%
  WBC: 121.2 x10_2/uL
  KIDNEY_L: 1.2 g
  KIDNEY_R: 1.1 g
  KIDNEY_TOTAL: 2.4 g
  LIVER: 8.7 g
  A/G: 0.7
  ALP: 1402 IU/L
  ALT: 227 IU/L
  AST: 699 IU/L
  BUN: 53 mg/dL
  CRE: 0.3 mg/dL
  Ca: 11 mg/dL
  Cl: 108 meq/L
  DBIL: 0.03 mg/dL
  GLC: 160 mg/dL
  IP: 8 mg/dL
  K: 4.1 meq/L
  LDH: 117 IU/L
  Na: 146 meq/L
  PL: 111 mg/dL
  RALB: 2.5 g/dL
  TBIL: 0.1 mg/dL
  TC: 76 mg/dL
  TG: 13 mg/dL
  TP: 6.1 g/dL
  gamma-GTP: 2 IU/L
